From PubChem BioAssay (NCI)
“And” between values parts separate entries of the source, which are not always exact repeats. Identical values can stand only once.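 Each compound was tested at five concentrations against cells in 96-well plates for 48 hours. GI50 = concentration required for 50% inhibition of growth. TGI marks complete inhibition of growth.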

What was measured:
Test in all cases: NCI tumour cell line growth inhibition, 48 h
DU-145 prostate = test system: DU-145 prostate
786-0 renal = test system: 786-0 renal
BT-549 breast = test system: BT-549 breast
MDA-MB-435 = test system: MDA-MB-435
MOLT-4 leukemia = test system: MOLT-4 leukemia
UACC-62 melanoma = test system: UACC-62 melanoma
MALME-3M melanoma = test system: MALME-3M melanoma
COLO 205 colon = test system: COLO 205 colon
OVCAR-3 ovarian = test system: OVCAR-3 ovarian
RXF 393 renal = test system: RXF 393 renal
M14 melanoma = test system: M14 melanoma
CCRF-CEM leukemia = test system: CCRF-CEM leukemia
SW-620 colon = test system: SW-620 colon
HOP-62 NSCLC = test system: HOP-62 NSCLC

Row | Compound | TGI (DU-145 prostate) | TGI (786-0 renal) | TGI (BT-549 breast) | TGI (MDA-MB-435) | TGI (MOLT-4 leukemia) | TGI (UACC-62 melanoma) | TGI (MALME-3M melanoma) | TGI (COLO 205 colon) | TGI (OVCAR-3 ovarian) | TGI (RXF 393 renal) | TGI (M14 melanoma) | TGI (CCRF-CEM leukemia) | TGI (SW-620 colon) | TGI (HOP-62 NSCLC) | GI50 (MDA-MB-435) | GI50 (MOLT-4 leukemia) | GI50 (UACC-62 melanoma) | GI50 (MALME-3M melanoma) | GI50 (OVCAR-3 ovarian) | GI50 (CCRF-CEM leukemia)
1 | COc1cc(CNC(=O)[C@H](Cc2ccc(O)cn2)NC(C)=O)cc(OC)c1 | > 100 µM | > 100 µM | > 100 µM | > 100 µM | > 100 µM | > 100 µM | > 100 µM | > 100 µM | > 100 µM | > 100 µM | > 100 µM | > 100 µM | > 100 µM | > 100 µM | – | – | – | – | – | –
2 | O=C1C=CC[C@H](/C=C/C[C@@H](O)C[C@H](O)/C=C/c2ccccc2)O1 | 26.3 µM | 29.6 µM | 23.6 µM | 23.4 µM | 39.6 µM | 29.4 µM | 28.6 µM | 20.4 µM | 23.7 µM | 22.1 µM | 27.4 µM | 19.1 µM | 27.4 µM | 30.9 µM | – | – | – | – | – | –
3 | COc1ccccc1-c1nc2ccccc2c(=O)[nH]1 | > 100 µM | > 100 µM | > 100 µM | > 100 µM | > 100 µM | > 100 µM | > 100 µM | > 100 µM | > 100 µM | > 100 µM | > 100 µM | > 100 µM | > 100 µM | > 100 µM | – | – | – | – | – | –
4 | BrCCC[P+](c1ccccc1)(c1ccccc1)c1ccccc1 | > 100 µM | > 100 µM | > 100 µM | > 51.8 µM | > 94.6 µM | 64.2 µM | > 100 µM | 4.16 µM | 38.6 µM | 7.55 µM | > 100 µM | > 100 µM | > 100 µM | > 100 µM | – | – | – | – | – | –
5 | CCn1c(-c2ccccc2)nc2c1C(=O)c1ccccc1C2=O | > 100 µM | > 100 µM | 60.6 µM | 33.8 µM | 91.1 µM | 60.2 µM | 21.7 µM | 91.1 µM | 49.5 µM | 50.9 µM | 54 µM | > 100 µM | > 100 µM | > 100 µM | – | – | – | – | – | –
6 | OCCCCn1cc(Cn2ncc3c(SCc4ccccc4)ncnc32)nn1 | > 100 µM | > 100 µM | > 100 µM | > 100 µM | 77.3 µM | > 100 µM | > 100 µM | 91.4 µM | > 100 µM | > 100 µM | > 100 µM | > 100 µM | 90.9 µM | > 100 µM | – | – | – | – | – | –
7 | C[C@@H]1OC(=O)C[C@H]2CC(=O)N(CCC3CN(S(=O)(=O)C(F)(F)F)c4ccc(Cc5ccc6c(c5)C(CCN5C[C@H]7[C@@H](CC(=O)O[C@H]7C)CC5=O)CN6S(=O)(=O)C(F)(F)F)cc43)C[C@@H]21 (stereo partly specified) | > 100 µM | > 100 µM | > 100 µM | > 100 µM | > 100 µM | > 100 µM | > 100 µM | > 100 µM | > 100 µM | > 100 µM | > 100 µM | > 100 µM | > 100 µM | > 100 µM | – | – | – | – | – | –
8 | CCOC(=O)/C=C(\C(=O)OCC)n1cnc2c(N)ncnc21 | 29.1 µM | 10.2 µM | 27.3 µM | 24.7 µM | 6.89 µM | 23.8 µM | 15.8 µM | 4.6 µM | 21.4 µM | 26.4 µM | 22.7 µM | 4.51 µM | 8.49 µM | 39.8 µM | – | – | – | – | – | –
9 | O=C(N/N=C/C=C/c1ccc([N+](=O)[O-])o1)c1ccc(Br)s1 | > 100 µM | 47.5 µM | 51.8 µM | 83.6 µM | > 100 µM | 49.5 µM | 37.9 µM | 33.3 µM | 41.7 µM | 30.9 µM | 42.1 µM | > 100 µM | 71.6 µM | > 100 µM | – | – | – | – | – | –
10 | O=C(Nc1nncs1)NS(=O)(=O)n1cnc2ccccc21 | > 100 µM | > 100 µM | > 100 µM | > 100 µM | > 100 µM | > 100 µM | > 100 µM | > 100 µM | > 100 µM | > 100 µM | > 100 µM | > 100 µM | > 100 µM | > 100 µM | – | – | – | – | – | –
11 | COc1cc(/C=C/c2sc3ccccc3[n+]2C)ccc1N(C)C | 35 µM | 24.8 µM | 3.7 µM | 22.5 µM | 30 µM | 22.4 µM | 19.8 µM | 2.76 µM and 2.86 µM | 13 µM | 33.5 µM | 27.1 µM | 13.9 µM | 25.8 µM | 32.8 µM | 10.2 µM | 8.06 µM | 10.4 µM | 5.85 µM | 3.15 µM | 3.76 µM
12 | COC1=CC(=O)c2c(O)ccc(O)c2C1=O | 3.18 µM | 28 µM | 6.17 µM | 1.34 µM | 44.3 µM | 4.21 µM | 0.357 µM | 3.07 µM | 5.03 µM | 31.3 µM | 1.89 µM | 43.6 µM | 17.7 µM | 10.9 µM | – | – | – | – | – | –
13 | CCOC(=O)NC(NNc1ccc([N+](=O)[O-])cc1[N+](=O)[O-])(C(F)(F)F)C(F)(F)F | > 100 µM | > 100 µM | > 100 µM | > 100 µM | > 100 µM | > 100 µM | > 100 µM | 29.9 µM | > 100 µM | > 100 µM | > 100 µM | 72.3 µM | > 100 µM | > 100 µM | – | – | – | – | – | –
14 | CC(=O)N1CC[N+](C)(CCCCN2c3ccccc3Sc3cc(N=[N+]=[N-])ccc32)CC1 | > 100 µM | > 100 µM | > 100 µM | > 100 µM | > 100 µM | > 100 µM | > 100 µM | > 100 µM | > 100 µM | > 100 µM | > 100 µM | > 100 µM | > 100 µM | > 100 µM | – | – | – | – | – | –
15 | O=C1OC2c3ccccc3C(=O)C2(c2ccccc2)N1c1ccccc1 (stereo unspecified) | > 200 µM | > 200 µM | > 200 µM | > 200 µM | > 200 µM | > 200 µM | > 200 µM | > 200 µM | > 200 µM | > 200 µM | > 200 µM | > 200 µM | > 200 µM | > 200 µM | – | – | – | – | – | –
16 | c1nc(SSc2ncnc3nc[nH]c23)c2[nH]cnc2n1 | > 100 µM | > 100 µM | > 100 µM | > 85.3 µM | > 40.4 µM | 0.0568 µM | 18.5 µM | > 100 µM | > 33.6 µM | > 100 µM | > 68.7 µM | > 100 µM | > 100 µM | > 100 µM | – | – | – | – | – | –
17 | COCC(=O)OC1CCn2c1nc1c2C(=O)C(C)=C(NC(C)=O)C1=N (stereo unspecified) | 36.7 µM | 9.3 µM | 3.76 µM | 3.59 µM | 5.2 µM | 3.34 µM | 2.7 µM | 37.3 µM | 5.85 µM | 6.47 µM | 15 µM | 8.27 µM | 6.12 µM | 29.2 µM | – | – | – | – | – | –
18 | Cc1nn(-c2ccccc2)c2c1C(c1cc3ccccc3nc1Cl)NC(=S)N2 (stereo unspecified) | > 100 µM | > 100 µM | > 100 µM | > 100 µM | > 100 µM | > 100 µM | > 100 µM | > 100 µM | > 100 µM | 71.8 µM | > 100 µM | > 100 µM | 98.4 µM | > 100 µM | – | – | – | – | – | –
19 | COc1ccc(C(=O)/C=C/c2ccc(OCC(=O)O)cc2)cc1 | > 100 µM | > 100 µM | > 100 µM | > 100 µM | > 100 µM | > 100 µM | > 100 µM | > 100 µM | > 100 µM | > 100 µM | > 100 µM | > 100 µM | > 100 µM | > 100 µM | – | – | – | – | – | –
20 | O=C1c2ccccc2C(=O)c2c1oc(=O)c1ccccc21 | 14 µM | 14 µM | 9.2 µM | 3.61 µM | 12.5 µM | 8.36 µM | 5.79 µM | 24.7 µM | 3.61 µM | 9.62 µM | 16.1 µM | 16 µM | > 25 µM | 24.6 µM | – | – | – | – | – | –
21 | CC(C)CCNC(=O)c1ccc(CNC(=O)/C=C/c2csc(-c3ccccc3)n2)cc1 | > 100 µM | > 100 µM | > 100 µM | > 100 µM | > 100 µM | > 100 µM | > 100 µM | > 100 µM | > 100 µM | 73.6 µM | > 100 µM | > 100 µM | > 100 µM | 37.4 µM | – | – | – | – | – | –
22 | c1ccc2c(c1)CCN1CCc3c([nH]c4ccccc34)C21 (stereo unspecified) | > 100 µM | > 100 µM | > 100 µM | 75.5 µM | 70.6 µM | > 100 µM | 38.3 µM | 37.8 µM | 66.7 µM | 72.3 µM | 34 µM | 95.5 µM | > 100 µM | > 100 µM | – | – | – | – | – | –
23 | Cc1ccc(S(=O)C[C@@]2(C(F)F)NC(=O)NC2=O)cc1 (stereo partly specified) | > 100 µM | > 100 µM | > 100 µM | > 100 µM | > 100 µM | > 100 µM | > 100 µM | > 100 µM | > 100 µM | > 100 µM | > 100 µM | > 100 µM | > 100 µM | > 100 µM | – | – | – | – | – | –
24 | COc1ccc(-c2oc3cc(OC)c(OC)c(OC)c3c(=O)c2OC)cc1OC | > 100 µM | > 100 µM | > 100 µM | > 100 µM | > 100 µM | > 100 µM | > 100 µM | > 100 µM | > 100 µM | > 100 µM | > 100 µM | > 100 µM | > 100 µM | > 100 µM | – | – | – | – | – | –
25 | Clc1ccc2c(c1)CC1C[N+]3=C(CCCC3)C1=C2 (stereo unspecified) | > 100 µM | > 100 µM | > 100 µM | > 100 µM | > 100 µM | > 100 µM | > 100 µM | > 100 µM | > 100 µM | > 100 µM | > 100 µM | > 100 µM | > 100 µM | > 100 µM | – | – | – | – | – | –
